SMILES strings stand for the structures.

The target of this assay is Stromelysin (Homo sapiens, UniProt P08254). In words: Stromelysin inhibition, in vitro particle concentration fluorescence assay (TABLE 1, MMP Inhibition Constants). The assay is classed as biochemical. As to conditions: fluorescein/biotin substrate, MMP buffer pH 7.5, room temperature, 15 min preincubation with enzyme, 1-3 h with substrate. How it is done: Inhibitory activity is evaluated in one or more of the MMP enzymes (stromelysin, gelatinase, and collagenase) in vitro using particle concentration fluorescence assay. An inhibitor binds to MMP enzymes which prevents the degradation of a substrate by stromelysin, gelatinase, or collagenase. The substrate has attached to it a fluorescein and a biotin moiety. The intact substrate then binds to an avidin-coated particle via the biotin moiety. Once the particle is washed and dried, a fluorescent signal is generated since the fluorescent group is attached to the particle. Without an inhibitor present, the substrate is degraded by MMP enzymes and the fluorescein group is removed, therefore, no fluorescent signal can be detected. Testing compounds are dissolved in DMSO to the desired concentration, then the solutions are diluted to 1:5 with MMP buffer (50 mM Tris-HCl, pH 7.5; 150 mM NaCl; 0.02% NaN3). Serial two-fold dilutions of each compound are prepared. A concentrated, activated enzyme solution is transferred into each plate of the testing compounds, and the mixture is incubated at room temperature for 15 minutes. Thawed MMP substrate is then added into all plates, and the plates are incubated in the dark for 1-3 hours at room temperature. At this point, the substrate mixture is mixed with 0.1% avidin-coated polystyrene particles. After 15 minutes, the fluorescence values are measured following filtration and washing of the beads. Ki values are then calculated.
Chain of Stromelysin (P08254 100-477): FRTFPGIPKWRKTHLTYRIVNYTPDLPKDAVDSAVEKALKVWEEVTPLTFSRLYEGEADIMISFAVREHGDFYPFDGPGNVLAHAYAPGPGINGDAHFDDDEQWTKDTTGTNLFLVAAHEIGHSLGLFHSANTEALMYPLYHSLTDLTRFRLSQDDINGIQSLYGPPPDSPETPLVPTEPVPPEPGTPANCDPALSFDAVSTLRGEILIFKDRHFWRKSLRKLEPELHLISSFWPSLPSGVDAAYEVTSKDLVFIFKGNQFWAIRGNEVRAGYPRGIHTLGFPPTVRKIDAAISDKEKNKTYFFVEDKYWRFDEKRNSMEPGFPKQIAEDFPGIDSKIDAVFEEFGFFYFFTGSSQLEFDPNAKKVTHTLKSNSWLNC
`CC(C)(C)OC(=O)NC(C(=O)Nc1n[nH]c(=S)s1)C(C)(C)/C=C\c1ccccc1` (stereo not drawn) [Example 18, (Z)-(1-(((4,5-dihydro-5-thioxo-1,3,4-thiadiazol-2-yl)amino)carbonyl)-2,2-dimethyl-4-phenyl-3-butenyl)carbamic acid 1,1-dimethylethyl ester] displayed a Ki of 1800 nM.

As for `CC(C)C[C@@H](NC(=O)OCc1ccccc1)[C@H](Cc1ccccc1)C(=O)Nc1n[nH]c(=S)s1` (relative stereo) [Example 56, (R*,S*)-[1-[2-[(4,5-dihydro-5-thioxo-1,3,4-thiadiazol-2-yl)amino]-oxo-1(phenylmethyl)ethyl]-3-methylbutyl]carbamic acid phenylmethyl ester], affinity was put at a Ki of 1700 nM.

For `CC(C)(C)OC(=O)NC(C(=O)Nc1n[nH]c(=S)s1)C(C)(C)CCc1ccccc1` (stereo not drawn) [Example 19, (1-(((4,5-dihydro-5-thioxo-1,3,4-thiadiazol-2-yl)amino)carbonyl)-2,2-dimethyl-4-phenylbutyl)carbamic acid 1,1-dimethylethyl ester], affinity was put at a Ki of 6200 nM. This Ki lies about 3.6-fold higher than the previous one.

`O=C(N[C@@H](Cc1ccccc1)C(=O)Nc1n[nH]c(=S)s1)OCc1ccccc1` [Example 34, (S)-[2-[(4,5-dihydro-5-thioxo-1,3,4-thiadiazol-2-yl)amino]-2-oxo-1-(phenylmethyl)ethyl]carbamic acid phenylmethyl ester] displayed a Ki of 6090 nM.

As for `CCCCCCCC(NC(=O)OCc1ccccc1)C(=O)Nc1n[nH]c(=S)s1` (stereo not drawn) [Example 10, [1-[[(4,5-dihydro-5-thioxo-1,3,4-thiadiazol-2-yl)amino]carbonyl]octyl]carbamic acid phenylmethyl ester], the affinity, expressed as Ki, was 6320 nM.

The compound `CC(=O)NC(C(=O)Nc1n[nH]c(=S)s1)c1ccccc1` (stereo not drawn) [Example 13, α-(acetylamino)-N-(4,5-dihydro-5-thioxo-1,3,4-thiadiazol-2-yl)-benzeneacetamide] came in with a Ki of 1800 nM.

The compound `CC(C)C[C@@H](CC(=O)Nc1n[nH]c(=S)s1)NC(=O)OCc1ccccc1` [Example 54, (S)-[1-[2-[[4,5-dihydro-5-thioxo-1,3,4-thiadiazol-2-yl)amino]-2-oxoethyl]-3-methylbutyl]carbamic acid phenylmethyl ester] registered a Ki of 1200 nM. Compared with the last compound, the Ki is about 1.5-fold lower.

On to `CC[C@H](C)[C@H](NC(=O)OCc1ccccc1)C(=O)Nc1n[nH]c(=S)s1` [Example 3, [S-(R*,R*)]-[1-[[(4,5-dihydro-5-thioxo-1,3,4-thiadiazol-2-yl)amino]carbonyl]-2-methylbutyl[carbamic acid phenylmethyl ester], for which the Ki was 1240 nM.

For `CC(C)(C)[C@H](NC(=O)CCc1c(F)c(F)c(F)c(F)c1F)C(=O)Nc1n[nH]c(=S)s1` [Example 27, (S)-N-[1-[[(4,5-dihydro-5-thioxo-1,3,4-thiadiazol-2-yl)amino]carbonyl]-2,2-dimethylpropyl]-2,3,4,5,6-pentafluorobenzenepropanamide], the inhibition constant Ki is 910 nM.

As to `O=C(NCC(Cc1ccccc1)C(=O)Nc1n[nH]c(=S)s1)OCc1ccccc1` (stereo not drawn) [Example 39, [3-[(4,5-dihydro-5-thioxo-1,3,4-thiadiazol-2-yl)amino]-3-oxo-2-(phenylmethyl)propyl]carbamic acid phenylmethyl ester], the Ki came out at 1320 nM. The Ki values of the last two compounds are within 1.5-fold of each other.

Regarding `CC(C)(C)OC(=O)NC(CC(=O)Nc1n[nH]c(=S)s1)c1ccccc1` (stereo not drawn) [Example 45, [3-[(4,5-dihydro-5-thioxo-1,3,4-thiadiazol-2-yl)amino]-3-oxo-1-phenylpropyl]carbamic acid 1,1-dimethylethyl ester], the Ki is 720 nM.

In turn, `O=C(CC(NC(=O)c1ccccc1)c1ccccc1)Nc1n[nH]c(=S)s1` (stereo not drawn) [Example 42, β-(benzoylamino)-N-(4,5-dihydro-5-thioxo-1,3,4-thiadiazol-2-yl)benzenepropanamide] came in with an inhibitory constant (Ki) of 1360 nM.

As to `CC(C)[C@H](NC(=O)OCc1ccccc1)C(=O)Nc1n[nH]c(=S)s1` [Example 36, (S)-[1-[[(4,5-dihydro-5-thioxo-1,3,4-thiadiazol-2-yl)amino]carbonyl]-2-methylpropyl]carbamic acid phenylmethyl ester], the affinity corresponds to a Ki of 1160 nM. This Ki and that of the compound before are within 1.5-fold of each other.

Compound `CC(C)C[C@H](NC(=O)OCc1ccccc1)C(=O)Nc1n[nH]c(=S)s1` [Example 35, (S)-[1-[[(4,5-dihydro-5-thioxo-1,3,4-thiadiazol-2-yl)amino]carbonyl]-3-methylbutyl]carbamic acid phenylmethyl ester] gave an inhibition constant Ki of 2220 nM.

Compound `C=CC[C@H](C(=O)Nc1n[nH]c(=S)s1)[C@@H](CC(C)C)NC(=O)OCc1ccccc1` (relative stereo) [Example 55, (R*,S*)-[2-[[(4,5-dihydro-5-thioxo-1,3,4-thiadiazol-2-yl)amino]carbonyl]-1-(2-methylpropyl)-4-pentenyl]carbamic acid phenylmethyl ester] showed a Ki of 1910 nM.

`O=C(CCc1ccccc1)N[C@@H](Cc1c(F)c(F)c(F)c(F)c1F)C(=O)Nc1n[nH]c(=S)s1` [Example 30, (S)-α-N-(4,5-dihydro-5-thioxo-1,3,4-thiadiazol-2-yl)-2,3,4,5,6-pentafluoro-[(1-oxo-3-phenylpropyl)amino]benzenepropanamide] registered a Ki of 970 nM. Against the preceding compound, the Ki is about 2-fold lower.

Take `O=C(N[C@@H](Cc1c[nH]c2ccccc12)C(=O)Nc1n[nH]c(=S)s1)OCc1ccccc1` [Example 33, (S)-[2-[(4,5-dihydro-5-thioxo-1,3,4-thiadiazol-2-yl)amino]-1-(1H-indol-3-yl-methyl)-2-oxoethyl]-carbamic acid, phenylmethyl ester]: the Ki was 10200 nM. Against the preceding compound, the Ki is about 11-fold higher.

Compound `CC(C)(C)[C@H](NC(=O)OCc1ccccc1)C(=O)Nc1n[nH]c(=S)s1` [Example 6, (S)-[1-[[(4,5-dihydro-5-thioxo-1,3,4-thiadiazol-2-yl)amino]carbonyl]-2,2-dimethylpropyl]carbamic acid phenylmethyl ester] gave an inhibition constant (Ki) of 530 nM. Against the preceding compound, the Ki is about 19-fold lower.

In turn, `CC(C)(C)OC(=O)N1CCC[C@H]1C(=O)N[C@H](C(=O)Nc1n[nH]c(=S)s1)C(C)(C)C` [Example 29, 1-[(1,1-dimethylethoxy)carbonyl]-L-prolyl-N-(4,5-dihydro-5-thioxo-1,3,4-thiadiazol-2-yl)-3-methyl-L-valinamide] showed a Ki of 1470 nM.

`O=C(N[C@@H](CCc1ccccc1)C(=O)Nc1n[nH]c(=S)s1)OCc1ccccc1` [Example 2, (S)-[1-[[(4,5-dihydro-5-thioxo-1,3,4-thiadiazol-2-yl)amino]carbonyl]-3-phenylpropyl]carbamic acid phenylmethyl ester] gave an inhibition constant (Ki) of 13900 nM.

`CC(C)(C)OC(=O)NC(C(=O)Nc1n[nH]c(=S)s1)C(C)(C)CCCc1ccccc1` (stereo not drawn) [Example 21, (1-(((4,5-dihydro-5-thioxo-1,3,4-thiadiazol-2-yl)amino)carbonyl)-2,2-dimethyl-5-phenylpentyl)carbamic acid 1,1-dimethylethyl ester] showed a Ki of 2720 nM.

Consider `O=C(CC(NC(=O)Cc1ccccc1)c1ccccc1)Nc1n[nH]c(=S)s1` (stereo not drawn) [Example 43, N-(4,5-dihydro-5-thioxo-1,3,4-thiadiazol-2-yl)-β-[(phenylacetyl)amino]benzenepropanamide], for which the Ki is 655 nM.

Turning to `CC(C)(C)[C@H](NC(=O)Cc1c[nH]c2ccccc12)C(=O)Nc1n[nH]c(=S)s1` [Example 32], the affinity corresponds to a Ki of 410 nM.

In turn, `O=C(COCc1ccccc1)NC(C(=O)Nc1n[nH]c(=S)s1)c1ccccc1` (stereo not drawn) [Example 16, N-(4,5-dihydro-5-thioxo-1,3,4-thiadiazol-2-yl)-α-[[(phenylmethoxy)acetyl]amino]benzeneacetamide] gave a Ki of 380 nM.

Regarding `CC(=O)NCSC(C)(C)C(NC(=O)OCc1ccccc1)C(=O)Nc1n[nH]c(=S)s1` (stereo not drawn) [Example 17, (2-(((acetylamino)methyl)thio)-1-(((4,5-dihydro-5--thioxo-1,3,4-thiadiazol-2-yl)amino)carbonyl)-2-methylpropyl)carbamic acid phenylmethyl ester], the Ki is 1770 nM.

In turn, `CC(C)(C)C(CC(=O)Nc1n[nH]c(=S)s1)NC(=O)OCc1ccccc1` (stereo not drawn) [Example 40, [3-[(4,5-dihydro-5-thioxo-1,3,4-thiadiazol-2-yl)amino]-3-oxo-1-(1,1-dimethylethyl)propyl]carbamic acid phenylmethyl ester] displayed a Ki of 11100 nM.

Turning to `CC(C)(C)OC(=O)NC(C(=O)Nc1n[nH]c(=S)s1)c1ccccc1` (stereo not drawn) [Example 24, [2-[(4,5-dihydro-5-thioxo-1,3,4-thiadiazol-2-yl)amino]-2-oxo-1-phenylethyl]carbamic acid 1,1-dimethylethyl ester], affinity was put at a Ki of 1980 nM.

Turning to `O=C(NCC(C(=O)Nc1n[nH]c(=S)s1)c1ccccc1)OCc1ccccc1` (stereo not drawn) [Example 38, [3-[(4,5-dihydro-5-thioxo-1,3,4-thiadiazol-2-yl)amino]-3-oxo-2-phenylpropyl]carbamic acid phenylmethyl ester], the inhibition constant (Ki) was 2270 nM.

In the case of `O=C(NC(C(=O)Nc1n[nH]c(=S)s1)c1ccccc1)OCc1ccccc1` (stereo not drawn) [Example 1, [2-[(4,5-dihydro-5-thioxo-1,3,4-thiadiazol-2-yl)amino]-2-oxo-1-phenylethyl]carbamic acid, phenylmethyl ester], the Ki was found to be 1210 nM. This Ki is about 1.9-fold lower than that of the compound before.

The compound `O=C(Nc1n[nH]c(=S)s1)[C@@H]1CC[C@H](C(=O)N(Cc2ccccc2)OCc2ccccc2)C1` (relative stereo) [Example 60, cis-N'-(4,5-dihydro-5-thioxo-1,3,4-thiadiazol-2-yl)-N-(phenylmethoxy)-N-(phenylmethyl)-1,3-cyclopentane dicarboxamide] returned a Ki of 10300 nM.

As a reminder, the Ki is a dissociation constant, usually derived from enzyme kinetics or from competition with a known ligand. Low values mean a stronger hold on the target, high ones a looser hold on the target.

These data come from patent US5830869A, “Thiadiazole amide MMP inhibitors” (priority 1997, dated 1998).
